Literature values as cited in patent US20250375548A1, “STERILIZATION PROCESS, SYSTEM AND PRODUCT INCLUDING MOLECULAR MOBILITY ENHANCER” (TEKDRY INTERNATIONAL, INC., priority 2019, published 2025).

What was measured:
[1] = @ 25° C.
[2] = 1,800 ppm at 44° C.

Row | SMILES | vapor pressure [1] | D-value [2]
1 | CCOCC [diethyl ether] | 520 mmHg | 
2 | CC(=O)OO [peracetic acid, reference compound] | 14.5 mmHg | 
3 | O=COO [performic acid] | 78 mmHg | lower than five
